Columns and labels:
IDO1 = IDO1 (Homo sapiens, UniProt P14902); assay: hIDO1 inhibitory potency evaluation (fluorescence assay, NFK-derived fluorophore); format: biochemical; design: gene encoding human IDO1 residues 6-403 His-tagged at the N-terminus; His tag (N); made in house; host or cells: Escherichia coli NiCo21; details: for IC50: recombinant hIDO1, mean ± SD of at least two independent determinations, read-out: IDO1 IC50; for inhibition at 100 µM: 100 µM compound, n.a. = not active, read-out: IDO1 % of Inhibition @ 100 µM
hIDO2 = target: T1, hIDO2 (Homo sapiens, UniProt Q6ZQW0); assay: hIDO2 inhibitory potency evaluation (fluorescence assay); format: biochemical; details: for inhibition at 100 µM: 100 µM compound, n.a. = not active, read-out: IDO2 % of Inhibition @ 100 µM
T1 construct: purchased Vinci-Biochem
T1 sequence (Q6ZQW0 1-407): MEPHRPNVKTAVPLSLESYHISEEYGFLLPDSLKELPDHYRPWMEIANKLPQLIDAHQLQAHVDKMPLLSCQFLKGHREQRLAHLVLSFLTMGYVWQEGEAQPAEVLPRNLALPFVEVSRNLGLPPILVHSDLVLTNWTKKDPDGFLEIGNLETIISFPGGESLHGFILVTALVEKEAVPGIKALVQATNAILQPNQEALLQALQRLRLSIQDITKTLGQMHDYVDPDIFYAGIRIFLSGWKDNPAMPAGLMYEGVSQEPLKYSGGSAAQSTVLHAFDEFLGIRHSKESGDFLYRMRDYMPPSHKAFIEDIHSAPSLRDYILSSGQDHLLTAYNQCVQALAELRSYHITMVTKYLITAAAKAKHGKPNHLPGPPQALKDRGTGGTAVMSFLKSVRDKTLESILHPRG
Procedure: (§1) Additionally, to determine IDO1 selectivity, all final compounds were assayed for their inhibitory potencies towards hIDO2 and hTDO. For this purpose, two new protocols were developed based on the published fluorescence assay for hIDO1 [25]. Sodium ascorbate, methylene blue, and bovine catalase were used in the same concentrations as for hIDO1. 50 mM phosphate buffers with pH values of 7.5 and 7.0 were used for hIDO2 and hTDO, respectively, as has been already mentioned before. First, the activities of hIDO2 and hTDO were determined at four different concentrations. […] Additionally, the effect of DMSO concentration on enzyme activity was investigated. […] The optimal hIDO2 and hTDO assay concentrations of the substrate L-Trp were determined to be 4 mM and 500 μM, respectively.
Activity of the compounds on hIDO2 was determined according to the previously reported fluorescence protocol for hIDO1 [25] and reported absorbance protocols for hIDO2 [30, 36] with several modifications. Recombinant hIDO2 was purchased from Vinci-Biochem (Vinci-Biochem, Srl, Vinci, Italy), bovine catalase was purchased from Sigma-Aldrich (Sigma-Aldrich, St. Louis, MO, USA). Prior to the measurement of activity for compounds, the enzyme activity was determined and optimal assay enzyme concentration was selected. The amounts of reagents needed to perform the assay were optimized. Briefly, the reagents needed were dissolved in 50 mM potassium phosphate buffer (pH 7.5, 0.01%, v/v Tween 20), the reaction was performed in black 384-well microplates. After the addition of 1 μL of 100 mM sodium ascorbate neutralized with an equimolar amount of 1M NaOH, 1 μL of 100 μM methylene blue, 1 μL of 1 mg/mL bovine catalase, 0.5 μL of DMSO (negative control) or solution of a compound in DMSO, 5 μL of […] hIDO2 and 1.5 μL of 26.7 mM L-Trp were added and the microplate was incubated for 60 min at 37 °C. The reaction was quenched with the addition of 10 μL of 400 mM piperidine solution in MilliQ water and the formation of the examined fluorophore began following incubation at 65 °C for 20 min. The production of NFK-derived fluorophore (λEX = 400 nm, λEM = 500 nm) was measured using a microplate reader (Synergy H4; BioTek Instruments, Inc., Winooski, VT, USA) after 60 min post-incubation at room temperature. In the preliminary testing compounds were tested at 100 μM with activities determined as residual activities—RA, which were calculated to% of inhibition, presented in Table 1 and Table 2. (% of inhibition = 100% − RA). All determinations were carried out in duplicates.

hTDO = target: T2, hTDO (Homo sapiens, UniProt P48775); assay: hTDO inhibitory potency evaluation (fluorescence assay); format: biochemical; details: for inhibition at 100 µM: 100 µM compound, n.a. = not active, read-out: TDO % of Inhibition @ 100 µM
T2 construct: purchased Vinci-Biochem
Procedure: as §1
The activity of the compounds on hTDO was determined according to the previously reported fluorescence protocol for hIDO1 [25] and reported absorbance protocols for hTDO [30] with several modifications. Recombinant hTDO was purchased from Vinci-Biochem (Vinci-Biochem, Vinci, Italy), bovine catalase was purchased from Sigma-Aldrich (Sigma-Aldrich, St. Louis, MO, USA). Prior to the measurement of activity for compounds, the enzyme activity was determined, and optimal assay enzyme concentration was selected. The amounts of reagents needed to perform the assay were optimized. Briefly, the reagents needed were dissolved in 50 mM potassium phosphate buffer (pH 7.0, 0.01%, v/v Tween 20), the reaction was performed in black 384-well microplates. After the addition of 1 μL of 100 mM sodium ascorbate neutralized with equimolar amount of 1 M NaOH, 1 μL of 100 μM methylene blue, 1 μL of 1 mg/mL bovine catalase, 0.5 μL of DMSO (negative control) or solution of a compound, 5 μL of 300 nM hTDO and 1.5 μL of 3.3 mM L-Trp were added and the microplate was incubated for 60 min at 37 °C. The reaction was quenched with the addition of 10 μL of 400 mM piperidine solution in MilliQ water and the formation of the examined fluorophore began following incubation at 65 °C for 20 min. The production of NFK-derived fluorophore (λEX = 400 nm, λEM = 500 nm) was measured using a microplate reader (Synergy H4; BioTek Instruments, Inc., Winooski, VT, USA) after 60 min post-incubation at room temperature. In the preliminary testing compounds were tested at 100 μM with activities determined as residual activities—RA, which were calculated to% of inhibition, presented in Table 1 and Table 2 (% of inhibition = 100% − RA). All determinations were carried out in duplicates.

Sequence of IDO1 (P14902 6-403): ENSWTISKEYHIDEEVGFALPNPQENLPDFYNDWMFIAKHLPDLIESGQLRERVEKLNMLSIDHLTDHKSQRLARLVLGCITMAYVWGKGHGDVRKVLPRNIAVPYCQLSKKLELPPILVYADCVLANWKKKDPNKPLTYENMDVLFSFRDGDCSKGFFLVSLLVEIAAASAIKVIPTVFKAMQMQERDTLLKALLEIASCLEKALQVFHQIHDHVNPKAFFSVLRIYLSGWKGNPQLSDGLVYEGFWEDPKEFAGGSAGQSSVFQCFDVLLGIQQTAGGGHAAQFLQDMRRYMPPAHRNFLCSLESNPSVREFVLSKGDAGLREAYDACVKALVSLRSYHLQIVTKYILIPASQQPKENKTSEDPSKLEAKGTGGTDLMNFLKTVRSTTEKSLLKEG
T2 sequence (P48775 whole entry): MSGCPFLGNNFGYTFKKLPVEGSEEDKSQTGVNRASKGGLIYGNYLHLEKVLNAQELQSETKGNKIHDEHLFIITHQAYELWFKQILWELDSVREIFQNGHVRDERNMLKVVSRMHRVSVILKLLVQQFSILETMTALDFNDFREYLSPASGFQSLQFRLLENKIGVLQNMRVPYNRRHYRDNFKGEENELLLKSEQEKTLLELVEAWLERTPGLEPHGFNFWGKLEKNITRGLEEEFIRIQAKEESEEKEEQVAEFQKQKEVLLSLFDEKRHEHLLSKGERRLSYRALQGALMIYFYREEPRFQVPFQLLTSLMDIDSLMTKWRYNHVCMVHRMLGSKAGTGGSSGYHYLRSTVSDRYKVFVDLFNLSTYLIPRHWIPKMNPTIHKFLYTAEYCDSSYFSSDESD

| SMILES | IC50 (IDO1) [µM] | inhibition at 100 µM (IDO1) [%] | melting point [°C] | also measured |
| --- | --- | --- | --- | --- |
| O=C(Cn1cnc2onc(-c3ccc(F)cc3)c2c1=O)N1CCCc2ccccc21 [Compound 12] | 50 | – | – | – |
| CN(C)C(=O)Cn1cnc2onc(-c3ccc(F)cc3)c2c1=O [Compound 13] | – | 21 ± 5 | 215 to 217 | – |
| O=C(Cn1cnc2onc(-c3ccc(F)cc3)c2c1=O)N1CCCCC1 [Compound 14] | – | 27 ± 4 | 174 to 176 | – |
| O=C(Cn1cnc2onc(-c3ccc(F)cc3)c2c1=O)NC12CC3CC(CC(C3)C1)C2 [Compound 15] | 88 | – | 204 to 205 | – |
| O=C(Cn1cnc2onc(-c3ccc(F)cc3)c2c1=O)Nc1ccccc1 [Compound 16] | – | 15 ± 4 | 203 to 205 | hIDO1 inhibition (in words) (IDO1): only weak inhibition; inhibition at 100 µM (hIDO2): 28 ± 9% |
| O=C(Cn1cnc2onc(-c3ccc(F)cc3)c2c1=O)Nc1ccc(F)cc1 [Compound 17] | – | 33 ± 2 | 206 to 209 | hIDO1 inhibition (in words) (IDO1): only weak inhibition |
| COC(=O)c1ccccc1NC(=O)Cn1cnc2onc(-c3ccc(F)cc3)c2c1=O [Compound 18] | – | 32 ± 4 | 212 to 214 | inhibition at 100 µM (hIDO2): 15 ± 1% |
| COC(=O)c1cccc(NC(=O)Cn2cnc3onc(-c4ccc(F)cc4)c3c2=O)c1 [Compound 19] | 55 | – | – | – |
| COC(=O)c1ccc(NC(=O)Cn2cnc3onc(-c4ccc(F)cc4)c3c2=O)cc1 [Compound 20] | 27 | – | 234 to 236 | hIDO1 inhibition (in words) (IDO1): low micromolar range |
| COC(=O)c1ccc(CNC(=O)Cn2cnc3onc(-c4ccc(F)cc4)c3c2=O)cc1 [Compound 21] | – | 27 ± 3 | 165 to 167 | – |
| O=C(Cn1cnc2onc(-c3ccc(F)cc3)c2c1=O)Nc1cccc(C(F)(F)F)c1 [Compound 22] | 55 | – | 195 to 200 | – |
| CS(=O)(=O)c1ccc(NC(=O)Cn2cnc3onc(-c4ccc(F)cc4)c3c2=O)cc1 [Compound 26] | – | 11 ± 2 | 234 to 238 | hIDO1 inhibition (in words) (IDO1): inactive |
| N#Cc1ccc(NC(=O)Cn2cnc3onc(-c4ccc(F)cc4)c3c2=O)cc1 [Compound 27] | – | 11 ± 4 | > 250 | hIDO1 inhibition (in words) (IDO1): inactive; inhibition at 100 µM (hTDO): 17 ± 2% |
| CN(C)c1ccc(NC(=O)Cn2cnc3onc(-c4ccc(F)cc4)c3c2=O)cc1 [Compound 28] | – | 31 ± 3 | – | hIDO1 inhibition (in words) (IDO1): weak inhibition; inhibition at 100 µM (hTDO): 18 ± 4% |
| O=C(Cn1cnc2onc(-c3ccc(F)cc3)c2c1=O)Nc1ccc(-c2ncco2)cc1 [Compound 29] | 30 | – | 237 to 239 | inhibition at 100 µM (hTDO): 29 ± 3% |
| O=C(Cn1cnc2onc(-c3ccc(F)cc3)c2c1=O)Nc1ccc(-c2nn[nH]n2)cc1 [Compound 30] | – | – | – | hIDO1 inhibition (in words) (IDO1): inactive; inhibition at 100 µM (hTDO): 17 ± 2% |
| O=C(Cn1cnc2onc(-c3ccccc3)c2c1=O)N1CCCc2ccccc21 [Compound 38] | – | – | – | inhibition at 100 µM (hIDO2): 16 ± 4% |
| NS(=O)(=O)NCCNc1nonc1C(=NO)Nc1ccc(F)c(Br)c1 [epacadostat, reference compound] | – | – | – | IC50 (hTDO): 9.62 µM; IC50 (hIDO2; positive control, assay validation, read-out: IDO2 IC50): 0.58 µM |

The next lines start with results.

| IC50 (IDO1) [µM] | inhibition at 100 µM (IDO1) [%] | melting point [°C] | SMILES | also measured |
| --- | --- | --- | --- | --- |
| 87 | – | 198 to 202 | CC(C)c1ccc(NC(=O)Cn2cnc3onc(-c4ccc(F)cc4)c3c2=O)cc1 [Compound 31] | – |
| 22 | – | – | O=C(Cn1cnc2onc(-c3ccc(F)cc3)c2c1=O)Nc1ccc(C2CCCCC2)cc1 [Compound 32] | hIDO1 inhibition (in words) (IDO1): low micromolar range |
| – | – | 219 to 221 | COc1cc(NC(=O)Cn2cnc3onc(-c4ccc(F)cc4)c3c2=O)cc(OC)c1OC [Compound 34] | hIDO1 inhibition (in words) (IDO1): inactive |
| – | 20 ± 6 | 210 to 215 | O=C(Cn1cnc2onc(-c3ccc(F)cc3)c2c1=O)Nc1cccc2ccccc12 [Compound 35] | – |
| 46 | – | 180 to 184 | O=C(Cn1cnc2onc(-c3ccc(F)cc3)c2c1=O)Nc1ccc2ccccc2c1 [Compound 36] | inhibition at 100 µM (hIDO2): 13 ± 2% |
| – | 17 ± 5 | 201 to 203 | O=C(Cn1cnc2onc(-c3ccc(F)cc3)c2c1=O)N1CCc2ccccc2C1 [Compound 37] | – |
| – | – | 197 to 199 | O=C(Cn1cnc2onc(-c3ccccc3)c2c1=O)Nc1ccc([N+](=O)[O-])cc1 [Compound 40] | inhibition at 100 µM (hIDO2): 16 ± 5% |
| – | 32 ± 1 | – | O=C(Cn1cnc2onc(-c3ccc(Br)cc3)c2c1=O)N1CCCc2ccccc21 [Compound 41] | – |
| – | 15 ± 4 | 171 to 178 | COc1ccc(-c2noc3ncn(CC(=O)N4CCCc5ccccc54)c(=O)c23)cc1 [Compound 42] | – |
| – | 14 ± 3 | 200 to 202 | O=C(Cn1cnc2onc(-c3ccc(OCc4ccccc4)cc3)c2c1=O)N1CCCc2ccccc21 [Compound 46] | – |
| – | 34 ± 1 | – | O=C(Cn1cnc2onc(-c3ccc(F)c(F)c3)c2c1=O)N1CCCc2ccccc21 [Compound 47] | – |
| 75 | – | – | O=C(Cn1cnc2onc(-c3ccc(F)c(F)c3)c2c1=O)Nc1ccc([N+](=O)[O-])cc1 [Compound 48] | inhibition at 100 µM (hTDO): 10 ± 6% |
| – | – | 202 to 205 | O=C(Cn1cnc2onc(-c3cccs3)c2c1=O)N1CCCc2ccccc21 [Compound 50] | – |
| 53 | – | – | O=C(Cn1cnc2onc(-c3cccs3)c2c1=O)Nc1ccc([N+](=O)[O-])cc1 [Compound 51] | – |
| – | 23 ± 5 | – | O=C(Cn1cnc2onc(-c3ccsc3)c2c1=O)N1CCCc2ccccc21 [Compound 52] | – |
| 40 | – | 231 to 233 | O=C(Cn1cnc2onc(-c3ccsc3)c2c1=O)Nc1ccc([N+](=O)[O-])cc1 [Compound 53] | inhibition at 100 µM (hIDO2): 21 ± 6% |

From PMC8001472, “Novel Selective IDO1 Inhibitors with Isoxazolo[5,4-d]pyrimidin-4(5H)-one Scaffold” (Pharmaceuticals, 2021)
